Reference: article PMC4280904 (Journal of Veterinary Pharmacology and Therapeutics, 2014)
Where two headings read alike, the source gives them in different places.

How the values were obtained:
[1] = Dose linearity of imepitoin after oral dosing; type: in vivo, beagle dogs; conditions: enteric-coated capsules, mean ± SEM, n=6
plasma protein [2] = assay: In vitro plasma protein binding; type: in vitro ADME, beagle dogs; conditions: beagle, dog, heparinized plasma, mean ± SEM, n=3
plasma protein [3] = assay: In vitro plasma protein binding; type: in vitro ADME, rats; conditions: rat
plasma protein [4] = assay: In vivo plasma protein binding in dogs dosed with [14C] imepitoin; type: in vitro ADME, beagle dogs
CYP1A1 = CYP1A1 (Homo sapiens, UniProt P04798); assay: In vitro enzyme inhibition, recombinant CYP, fluorescent metabolites; type: in vitro ADME
CYP1A2 = CYP1A2 (Homo sapiens, UniProt P05177); assay: as above; type: in vitro ADME
CYP2A6 = CYP2A6 (Homo sapiens, UniProt P11509); assay: as above; type: in vitro ADME
CYP2C8 = CYP2C8 (Homo sapiens, UniProt P10632); assay: as above; type: in vitro ADME; conditions: up to the highest concentration tested (100 μM)
CYP2C19 = CYP2C19 (Homo sapiens, UniProt P33261); assay: as above; type: in vitro ADME
CYP2D6 = CYP2D6 (Homo sapiens, UniProt P10635); assay: as above; type: in vitro ADME
CYP3A4 = CYP3A4 (Homo sapiens, UniProt P08684); assay: as above; type: in vitro ADME; conditions: up to the highest concentration tested (100 μM)
CYP2A = assay: In vivo enzyme induction: ethoxycoumarin O-deethylase; design: species or system Wistar rats; conditions: rats, 3–100 mg/kg p.o. once daily 7 days
CYP2E1 = assay: In vivo enzyme induction: nitrophenol hydroxylase; design: species or system Wistar rats; conditions: rats, 3–100 mg/kg p.o. once daily 7 days
CYP3A = assay: In vivo enzyme induction: erythromycin N-demethylase; design: species or system Wistar rats; conditions: rats, 3–100 mg/kg p.o. once daily 7 days
NAT1 = assay: In vivo enzyme induction: N-acetyltransferase, p-aminobenzoic acid; design: species or system Wistar rats; conditions: rats, 3–100 mg/kg p.o. once daily 7 days
NAT2 = assay: In vivo enzyme induction: N-acetyltransferase, procainamide; design: species or system Wistar rats; conditions: rats, 3–100 mg/kg p.o. once daily 7 days
[5] = system: pentylenetetrazole-induced convulsions; conditions: dogs, ref Löscher et al., 2004, cited from earlier work
[6] = dogs, 5 mg/kg, at time of seizure induction; ref Löscher et al., 2004; cited from earlier work
[7] = ref Heinecke & Thiel, 2001; cited from earlier work
[8] = ref Heinecke & Thiel, 2001; cited from earlier work; remark: listed apart in the source
[9] = system: canine idiopathic epilepsy; conditions: epileptic dogs, dose escalation; ref Löscher et al., 2004; Rieck et al., 2006; cited from earlier work
CYP2C9 = CYP2C9 (Homo sapiens, UniProt P11712); assay: In vitro enzyme inhibition, recombinant CYP, fluorescent metabolites
Sequence of CYP2C9 (P11712 whole entry): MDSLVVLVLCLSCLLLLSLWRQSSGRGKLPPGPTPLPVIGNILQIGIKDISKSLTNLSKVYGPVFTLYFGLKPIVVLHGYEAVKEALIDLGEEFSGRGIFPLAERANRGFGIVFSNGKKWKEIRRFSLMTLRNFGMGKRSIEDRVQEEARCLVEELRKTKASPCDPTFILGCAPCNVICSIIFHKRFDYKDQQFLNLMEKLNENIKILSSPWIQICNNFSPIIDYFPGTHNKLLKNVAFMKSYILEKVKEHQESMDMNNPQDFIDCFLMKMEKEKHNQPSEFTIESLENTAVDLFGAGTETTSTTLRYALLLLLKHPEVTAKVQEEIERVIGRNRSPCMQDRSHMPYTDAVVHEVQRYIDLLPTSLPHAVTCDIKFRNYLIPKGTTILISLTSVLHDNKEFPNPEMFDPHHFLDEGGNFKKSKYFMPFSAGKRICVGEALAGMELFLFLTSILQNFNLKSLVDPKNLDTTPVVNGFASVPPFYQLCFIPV

Sequence of CYP2D6 (P10635 whole entry): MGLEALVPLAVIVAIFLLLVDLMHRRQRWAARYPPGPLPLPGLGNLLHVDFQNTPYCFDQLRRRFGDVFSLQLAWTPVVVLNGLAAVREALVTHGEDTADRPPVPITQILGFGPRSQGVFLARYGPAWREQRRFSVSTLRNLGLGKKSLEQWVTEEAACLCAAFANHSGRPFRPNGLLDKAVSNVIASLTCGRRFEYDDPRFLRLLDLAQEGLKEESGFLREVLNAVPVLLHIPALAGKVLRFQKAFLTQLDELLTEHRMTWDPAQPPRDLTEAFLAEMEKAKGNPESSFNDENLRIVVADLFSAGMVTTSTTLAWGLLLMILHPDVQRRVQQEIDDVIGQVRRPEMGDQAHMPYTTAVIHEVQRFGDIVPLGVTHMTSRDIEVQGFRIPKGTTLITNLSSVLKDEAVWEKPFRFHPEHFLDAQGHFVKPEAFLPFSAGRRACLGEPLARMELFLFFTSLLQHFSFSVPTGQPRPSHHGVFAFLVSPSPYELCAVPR
Sequence of CYP2A6 (P11509 whole entry): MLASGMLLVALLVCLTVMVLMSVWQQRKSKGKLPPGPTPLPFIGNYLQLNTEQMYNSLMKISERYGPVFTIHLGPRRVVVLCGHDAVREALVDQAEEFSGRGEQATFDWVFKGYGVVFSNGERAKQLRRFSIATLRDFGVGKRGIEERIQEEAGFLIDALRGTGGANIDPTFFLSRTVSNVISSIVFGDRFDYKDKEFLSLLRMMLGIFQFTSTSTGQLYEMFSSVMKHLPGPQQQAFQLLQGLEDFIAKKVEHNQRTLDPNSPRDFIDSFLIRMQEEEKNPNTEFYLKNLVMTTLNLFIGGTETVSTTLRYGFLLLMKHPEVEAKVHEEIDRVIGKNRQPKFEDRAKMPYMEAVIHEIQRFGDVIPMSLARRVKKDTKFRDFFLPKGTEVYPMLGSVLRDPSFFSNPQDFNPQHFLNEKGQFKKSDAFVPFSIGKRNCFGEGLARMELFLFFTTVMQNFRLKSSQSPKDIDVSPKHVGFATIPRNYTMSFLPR
Sequence of CYP2C19 (P33261 whole entry): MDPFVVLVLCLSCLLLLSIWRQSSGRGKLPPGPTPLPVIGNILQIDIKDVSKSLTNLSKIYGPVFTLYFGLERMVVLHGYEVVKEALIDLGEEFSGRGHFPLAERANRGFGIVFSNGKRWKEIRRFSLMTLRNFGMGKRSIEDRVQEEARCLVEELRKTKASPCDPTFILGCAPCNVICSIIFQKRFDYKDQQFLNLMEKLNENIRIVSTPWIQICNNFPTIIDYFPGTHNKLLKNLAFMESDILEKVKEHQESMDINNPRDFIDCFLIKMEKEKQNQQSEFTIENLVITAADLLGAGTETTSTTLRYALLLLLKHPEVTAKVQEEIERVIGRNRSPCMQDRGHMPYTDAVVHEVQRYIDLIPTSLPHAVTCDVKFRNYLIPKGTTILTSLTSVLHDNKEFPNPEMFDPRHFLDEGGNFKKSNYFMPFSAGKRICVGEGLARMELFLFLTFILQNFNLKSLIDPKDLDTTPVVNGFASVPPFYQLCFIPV
Sequence of CYP1A2 (P05177 whole entry): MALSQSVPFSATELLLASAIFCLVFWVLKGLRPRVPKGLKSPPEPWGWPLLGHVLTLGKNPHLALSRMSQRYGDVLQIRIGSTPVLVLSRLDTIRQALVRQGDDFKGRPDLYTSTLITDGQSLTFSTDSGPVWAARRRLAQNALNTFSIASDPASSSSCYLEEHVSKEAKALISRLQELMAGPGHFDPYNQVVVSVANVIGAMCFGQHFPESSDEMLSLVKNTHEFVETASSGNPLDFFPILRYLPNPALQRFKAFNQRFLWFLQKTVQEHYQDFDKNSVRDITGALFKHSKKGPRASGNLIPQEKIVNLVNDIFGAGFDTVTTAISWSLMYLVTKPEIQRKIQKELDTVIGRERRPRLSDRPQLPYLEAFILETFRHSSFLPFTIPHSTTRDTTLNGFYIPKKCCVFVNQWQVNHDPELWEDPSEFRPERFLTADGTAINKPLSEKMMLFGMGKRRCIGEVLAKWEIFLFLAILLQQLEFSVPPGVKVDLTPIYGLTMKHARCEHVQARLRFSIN
Sequence of CYP2C8 (P10632 whole entry): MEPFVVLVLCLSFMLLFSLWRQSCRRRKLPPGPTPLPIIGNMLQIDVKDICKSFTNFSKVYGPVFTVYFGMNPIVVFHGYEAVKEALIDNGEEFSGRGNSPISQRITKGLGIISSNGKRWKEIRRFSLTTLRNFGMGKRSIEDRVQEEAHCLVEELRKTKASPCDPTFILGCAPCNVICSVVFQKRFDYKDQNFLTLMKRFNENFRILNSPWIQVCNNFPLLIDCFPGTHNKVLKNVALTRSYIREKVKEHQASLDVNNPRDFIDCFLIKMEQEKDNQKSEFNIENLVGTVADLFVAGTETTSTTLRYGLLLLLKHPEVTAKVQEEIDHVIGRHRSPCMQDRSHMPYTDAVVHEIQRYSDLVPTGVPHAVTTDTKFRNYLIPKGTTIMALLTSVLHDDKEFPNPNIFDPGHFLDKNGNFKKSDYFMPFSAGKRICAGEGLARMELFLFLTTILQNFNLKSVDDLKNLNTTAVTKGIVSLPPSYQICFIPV
Sequence of CYP3A4 (P08684 whole entry): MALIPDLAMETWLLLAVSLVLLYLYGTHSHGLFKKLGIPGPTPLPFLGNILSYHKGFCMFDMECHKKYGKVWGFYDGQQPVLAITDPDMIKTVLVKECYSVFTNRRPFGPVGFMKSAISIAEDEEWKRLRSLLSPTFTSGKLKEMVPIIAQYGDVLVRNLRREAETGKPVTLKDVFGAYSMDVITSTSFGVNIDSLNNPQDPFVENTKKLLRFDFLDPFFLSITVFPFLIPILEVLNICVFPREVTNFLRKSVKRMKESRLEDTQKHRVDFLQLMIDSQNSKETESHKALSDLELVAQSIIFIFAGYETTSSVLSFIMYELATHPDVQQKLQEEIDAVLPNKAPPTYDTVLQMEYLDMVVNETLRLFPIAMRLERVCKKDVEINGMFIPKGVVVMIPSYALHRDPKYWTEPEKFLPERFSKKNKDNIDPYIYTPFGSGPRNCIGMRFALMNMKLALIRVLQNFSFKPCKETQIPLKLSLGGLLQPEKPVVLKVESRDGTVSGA
Sequence of CYP1A1 (P04798 whole entry): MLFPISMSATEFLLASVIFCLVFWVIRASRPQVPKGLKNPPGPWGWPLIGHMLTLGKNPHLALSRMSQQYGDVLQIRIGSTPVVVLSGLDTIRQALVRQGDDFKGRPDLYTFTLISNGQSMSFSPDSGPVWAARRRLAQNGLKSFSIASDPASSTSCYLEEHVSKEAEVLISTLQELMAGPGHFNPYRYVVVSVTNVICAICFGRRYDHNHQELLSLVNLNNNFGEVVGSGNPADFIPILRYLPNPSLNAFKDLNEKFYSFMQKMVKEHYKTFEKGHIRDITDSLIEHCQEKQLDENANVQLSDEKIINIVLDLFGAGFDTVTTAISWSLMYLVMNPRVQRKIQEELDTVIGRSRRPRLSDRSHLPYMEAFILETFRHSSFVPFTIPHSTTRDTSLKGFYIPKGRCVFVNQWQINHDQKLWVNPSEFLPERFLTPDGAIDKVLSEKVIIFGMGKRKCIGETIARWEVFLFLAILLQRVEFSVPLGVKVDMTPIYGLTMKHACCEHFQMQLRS

SMILES: O=C1N=C(N2CCOCC2)CN1c1ccc(Cl)cc1 [Imepitoin, 1-(4-chlorophenyl)-4-morpholino-imidazolin-2-one]
- Tlag obs ([1]; single dose 20 mg/kg p.o.): 5.67 ± 0.95 h
- Tlag obs ([1]; single dose 50 mg/kg p.o.): 4.17 ± 1.05 h
- Tlag obs ([1]; single dose 100 mg/kg p.o.): 2.25 ± 0.94 h
- fraction unbound at 15 min, 10 μg/mL (plasma protein [2]): 0.44
- fraction unbound at 15 min, 0.1 μg/mL (plasma protein [3]; heparinized plasma): 0.49
- fraction unbound at 15 min, 1 μg/mL (plasma protein [3]; heparinized plasma): 0.5 ± 0.0064
- fraction unbound at 15 min, 10 μg/mL (plasma protein [3]; heparinized plasma): 0.5 ± 0.011
- fraction unbound at 15 min (plasma protein [3]; plasma (heparinized, pool of five fasted animals)): 0.49 to 0.5
- in vivo plasma protein binding (plasma protein [4]; 2 h after 20 mg/kg p.o. or 1 mg/kg i.v.): 59–69%
- in vivo plasma protein binding (plasma protein [4]; 8 h after 20 mg/kg p.o. or 1 mg/kg i.v.): 62–72%
- In vivo protein binding (plasma protein [4]; female dogs, 1 mg/kg i.v., 2 h after dosing, mean ± SEM): 59 ± 0.69%
- In vivo protein binding (plasma protein [4]; female dogs, 1 mg/kg i.v., 4 h after dosing, mean ± SEM): 66 ± 2.66%
- In vivo protein binding (plasma protein [4]; female dogs, 1 mg/kg i.v., 8 h after dosing, mean ± SEM): 72 ± 1.33%
- In vivo protein binding (plasma protein [4]; female dogs, 20 mg/kg p.o., 2 h after dosing): 69 (n < 3) %
- In vivo protein binding (plasma protein [4]; female dogs, 20 mg/kg p.o., 4 h after dosing, mean ± SEM): 66 ± 0.69%
- In vivo protein binding (plasma protein [4]; female dogs, 20 mg/kg p.o., 8 h after dosing, mean ± SEM): 62 ± 7.68%
- In vivo protein binding (plasma protein [4]; male dogs, 20 mg/kg p.o., 2 h after dosing): 60 (n < 3) %
- In vivo protein binding (plasma protein [4]; male dogs, 20 mg/kg p.o., 4 h after dosing, mean ± SEM): 63 ± 1.62%
- In vivo protein binding (plasma protein [4]; male dogs, 20 mg/kg p.o., 8 h after dosing, mean ± SEM): 67 ± 2.71%
- IC50 (CYP1A1): 55 µM
- IC50 (CYP1A2): > 100 µM
- Inhibition of the specific cytochrome P450 isoform IC50, 1A2 (CYP1A2; recombinant human CYP1A2): did not influence
- IC50 (CYP2A6): > 100 µM
- Inhibition of the specific cytochrome P450 isoform IC50, 2A6 (CYP2A6; recombinant human CYP2A6): did not influence
- influence on activity of CYP2C8 (CYP2C8): did not influence
- IC50 (CYP2C19): > 100 µM
- Inhibition of the specific cytochrome P450 isoform IC50, 2C19 (CYP2C19; recombinant human CYP2C19): did not influence
- IC50 (CYP2D6): > 100 µM
- Inhibition of the specific cytochrome P450 isoform IC50, 2D6 (CYP2D6; recombinant human CYP2D6): did not influence
- influence on activity of CYP3A4 (CYP3A4): did not influence
- induction of CYP2A (CYP2A): did not induce
- induction of CYP2E1 (CYP2E1): did not induce
- induction of CYP3A (CYP3A): did not induce
- induction of NAT1 (NAT1): did not induce
- induction of NAT2 (NAT2): did not induce
- elevation of threshold for pentylenetetrazole-induced convulsions ([5]; 5 mg/kg orally twice daily, 5 mg/kg): significant increase
- elevation of threshold for pentylenetetrazole-induced convulsions ([5]; 40 mg/kg twice daily, 40 mg/kg): much stronger elevation of threshold
- elevation of threshold for pentylenetetrazole-induced convulsions ([5]; 40 mg/kg twice daily, listed as imepitoin, 40 mg/kg): greatly enhanced the drug-induced effect
- development of tolerance toward anticonvulsant activity ([5]; repeated administration for 28 days): no development of tolerance
- peak plasma concentration [6]: 1400 to 1700 ng/mL
- solubility in acidic media such as gastric fluid [7]: more readily soluble in acidic media
- solubility in aqueous media [7]: very low solubility in aqueous media
- lipophilicity [8]: high lipophilicity
- anti-epileptic activity versus historical phenobarbital data [9]: comparable anti-epileptic activity
- tolerability versus phenobarbital [9]: clearly superior to phenobarbital
- IC50 (CYP2C9): > 100 µM
- Inhibition of the specific cytochrome P450 isoform IC50, 2C9 (CYP2C9; recombinant human CYP2C9): did not influence
